Drawing on patent publication US20240199647A1, “ANTI-VIRAL COMPOUNDS” (Aligos Therapeutics, Inc., priority 2022, published 2024), this text covers CC50, EC50 and IC50 for 25 compounds.

Molecules are shown by their SMILES. Like-named read-outs stand apart in the source and are kept apart here.

The nature of series [1]: in vitro. The note with it: human.
The subject of series [2] is SARS-CoV-2 B.1.1.7 lineage. The series can be described thus: microbe, parasite or virus in culture. The series is classed as cell-based. The note with it: Severe acute respiratory syndrome coronavirus 2, Table C, SARS-CoV-2 B.1.1.7 in A549-dual_ACE2_TMPRSS2 cells, read-out: A549-dual_ACE2_TMPRSS2 (EC50).
The nature of series [3]: Cytotoxicity in HeLa cells without addition of OC43 virus (in parallel). The note with it: human, HeLa cells, without OC43 virus.
For series [4], the system named is human beta-coronavirus OC43. Briefly: OC43 Coronavirus Assay in HeLa cells (antiviral, cytopathic effect, cell-titer-glo). The series is classed as cell-based. The note with it: Betacoronavirus 1, OC43, HeLa, Table B; OC43 coronavirus in HeLa cells, class symbols; read-out: EC50.
The target in series [5] is SARS-Cov-2 3CLpro (Severe acute respiratory syndrome coronavirus 2, UniProt P0DTD1). The series can be described thus: biochemical. The settings on record: Table A, class symbols, read-out: SARS-Cov-2 (IC50).

In series [1], `CN(C(=O)[C@@H](NC(=O)C(F)(F)F)C(C)(C)C)[C@@H](CC1CC1)C(=O)N1C[C@@]2(C[C@H]1C#N)Oc1cc(F)cc(F)c1NC2=O` [Compound 53] returned a CC50 greater than 1000 nM. The EC50 in series [2] (class symbols) and in series [4] was 100 to 1000 nM each time. In series [3], this compound gave a CC50 at 6 days greater than 10000 nM. Also, the half-maximal inhibitory concentration (IC50) in series [5] was less than 20 nM.
Consider `CC(C)C[C@@H](C(=O)N1C[C@]2(C[C@H]1C#N)C(=O)Nc1ccccc1C2(F)F)N(C)C(=O)[C@H](C)NC(=O)C(F)(F)F` [Example 43, (S)—N—((S)-1-((3R,5S)-5-cyano-4′,4′-difluoro-2′-oxo-1′,4′-dihydro-2′H-spiro[pyrrolidine-3,3′-quinolin]-1-yl)-4-methyl-1-oxopentan-2-yl)-N-methyl-2-(2,2,2-trifluoroacetamido)propanamide], for which the CC50 in series [1] was greater than 1000 nM. For the same compound, the EC50 in series [2] (class symbols) lay within 100 to 1000 nM; in series [4], 1000 to 10000 nM. Moreover, in series [3], the CC50 at 6 days is greater than 10000 nM. Moreover, the 50% inhibitory concentration (IC50) in series [5] was in the range of 20 to 200 nM.
The corresponding values for `CC(C)C[C@@H](C(=O)N1C[C@@]2(CC1C#N)Oc1cc(F)cc(F)c1NC2=O)N(C)C(=O)[C@H](C)NC(=O)C(F)(F)F` (some centres unmarked) [Compound 51] are greater than 1000 nM, 100 to 1000 nM, 100 to 1000 nM, greater than 10000 nM and less than 20 nM.
The corresponding values for `CN(C(=O)[C@H](CC1CC1)n1cc(C(F)(F)F)nn1)[C@@H](CC1CC1)C(=O)N1C[C@@]2(C[C@H]1C#N)Oc1cc(F)cc(F)c1NC2=O` [Compound 157] are greater than 1000 nM, less than 100 nM, less than 100 nM, greater than 10000 nM and less than 20 nM.
As for `CN(C(=O)[C@@H](COC(C)(C)C)NC(=O)C(F)(F)F)[C@@H](CC1CC1)C(=O)N1C[C@@]2(C[C@H]1C#N)Oc1cccnc1NC2=O` [Compound 156], the CC50 in series [1] was greater than 1000 nM. Moreover, the EC50 in series [2] (class symbols) was 100 to 1000 nM; in series [4] it was less than 100 nM. The compound further had a CC50 at 6 days in series [3] greater than 10000 nM. The IC50 in series [5] is less than 20 nM.
The corresponding values for `C[C@H](NC(=O)C(F)(F)F)C(=O)N(C)[C@@H](CC1CC1)C(=O)N1C[C@@]2(C[C@H]1C#N)Oc1ccccc1CNC2=O` [Compound 163] are greater than 1000 nM, 100 to 1000 nM, less than 100 nM, greater than 10000 nM and less than 20 nM.
The like results for `CC(C)[C@H](NC(=O)C(F)(F)F)C(=O)N(C)[C@@H](CC1CC1)C(=O)N1C[C@@]2(C[C@H]1C#N)Oc1cccnc1NC2=O` [Compound 177] were, in that order, greater than 1000 nM, 100 to 1000 nM, 100 to 1000 nM, greater than 10000 nM and less than 20 nM.
The like results for `CN(C(=O)[C@H](CC(C)(C)C)NC(=O)C(F)(F)F)[C@@H](CC1CC1)C(=O)N1C[C@@]2(C[C@H]1C#N)Oc1cc(F)cc(F)c1NC2=O` [Compound 89] were, in that order, greater than 1000 nM, less than 100 nM, less than 100 nM, greater than 10000 nM and less than 20 nM.
`CN(C(=O)[C@H](CC1CC1)NC(=O)C(F)(F)C(F)(F)F)[C@@H](CC1CC1)C(=O)N1C[C@@]2(C[C@H]1C#N)Oc1ncccc1NC2=O` [Compound 184] gave a CC50 in series [1] greater than 1000 nM. In addition, the EC50 in series [2] (class symbols) and in series [4] was less than 100 nM in each case. The compound also showed a CC50 at 6 days in series [3] greater than 10000 nM. In series [5], the IC50 was less than 20 nM.
`C[C@H](NC(=O)C(F)(F)F)C(=O)N(C)[C@@H](CC1CC1)C(=O)N1C[C@@]2(C[C@H]1C#N)Oc1ncccc1NC2=O` [Compound 209] displayed a CC50 in series [1] greater than 1000 nM. Also, the EC50 in series [2] (class symbols) is 100 to 1000 nM; in series [4] it was less than 100 nM. In series [3], this compound gave a CC50 at 6 days greater than 10000 nM. In addition, in series [5], the IC50 was less than 20 nM.
The like results for `CN(C(=O)[C@H](CC1CC1)NC(=O)C(F)(F)F)[C@@H](CC1CC1)C(=O)N1C[C@@]2(C[C@H]1C#N)Oc1ccc(F)cc1NC2=O` [Compound 15, (S)—N—((S)-1-((2R,5'S)-5′-cyano-6-fluoro-3-oxo-3,4-dihydrospiro[benzo[b][1,4]oxazine-2,3′-pyrrolidin]-1′-yl)-3-cyclopropyl-1-oxopropan-2-yl)-3-cyclopropyl-N-methyl-2-(2,2,2-trifluoroacetamido)propanamide] were, in that order, greater than 1000 nM, less than 100 nM, less than 100 nM, greater than 10000 nM and less than 20 nM.
The corresponding values for `C[C@H](NC(=O)C(F)(F)F)C(=O)N(C)[C@@H](CC1CC1)C(=O)N1C[C@@]2(C[C@H]1C#N)Oc1cc(F)cnc1NC2=O` [Compound 144] are greater than 1000 nM, 100 to 1000 nM, less than 100 nM, greater than 10000 nM and less than 20 nM.
In series [1], `C[C@H](NC(=O)C(F)(F)C(F)(F)F)C(=O)N(C)[C@@H](CC1CC1)C(=O)N1C[C@@]2(C[C@H]1C#N)Oc1cc(F)cc(F)c1NC2=O` [Compound 95] displayed a CC50 greater than 1000 nM. Besides, the values for the EC50 in series [2] (class symbols) and in series [4] were less than 100 nM and 1000 to 10000 nM, respectively. In series [3], this compound had a CC50 at 6 days greater than 10000 nM. In addition, in series [5], the half-inhibitory concentration (IC50) is less than 20 nM.
The like results for `CC(C)C[C@@H](C(=O)N1C[C@@]2(C[C@H]1C#N)CC1(CCCC1)NC2=O)N(C)C(=O)[C@H](C)NC(=O)C(F)(F)F` [Compound 19] were, in that order, greater than 1000 nM, 100 to 1000 nM, 100 to 1000 nM, greater than 10000 nM and 20 to 200 nM.
The corresponding values for `CN(C(=O)c1cc2c(F)cc(F)c(F)c2[nH]1)[C@@H](CC1CC1)C(=O)N1C[C@@]2(C[C@H]1C#N)Oc1cccc(F)c1NC2=O` [Compound 97] are greater than 1000 nM, 100 to 1000 nM, less than 100 nM, greater than 10000 nM and less than 20 nM.
The like results for `COC(=O)N[C@@H](CC1CC1)C(=O)N(C)[C@@H](CC1CC1)C(=O)N1C[C@@]2(C[C@H]1C#N)Oc1ncccc1NC2=O` [Compound 214] were, in that order, greater than 1000 nM, 100 to 1000 nM, less than 100 nM, greater than 10000 nM and less than 20 nM.
On to `CC(C)C[C@@H](C(=O)N1C[C@@]2(C[C@H]1C#N)N=C(C1CC1)NC2=O)N(C)C(=O)[C@H](C)NC(=O)C(F)(F)F` [Compound 16], for which the CC50 in series [1] was greater than 1000 nM. Moreover, the values for the EC50 in series [2] (cells given as a bound) and in series [4] were greater than 1000 nM and 100 to 1000 nM, respectively. Besides, in series [3], the CC50 at 6 days was greater than 10000 nM. Further, in series [5], the half-maximal inhibitory concentration (IC50) was 20 to 200 nM.
Take `CN(C(=O)[C@H](CC1CC1)NC(=O)C(F)(F)F)[C@@H](CC1CC1)C(=O)N1C[C@@]2(C[C@H]1C#N)Oc1cc(C(=O)N3CCOCC3)ccc1NC2=O` [Compound 143]: in series [1], the CC50 is greater than 1000 nM. In addition, the results for the EC50 in series [2] (class symbols) and in series [4] were 100 to 1000 nM and less than 100 nM, respectively. The compound also had a CC50 at 6 days in series [3] greater than 10000 nM. Besides, the 50% inhibitory concentration (IC50) in series [5] is less than 20 nM.
The like results for `C[C@H](NC(=O)C(F)(F)F)C(=O)N(C)[C@@H](CC1CC1)C(=O)N1C[C@@]2(C[C@H]1C#N)Oc1ccccc1NC2=O` [Compound 160] were, in that order, greater than 1000 nM, less than 100 nM, less than 100 nM, greater than 10000 nM and less than 20 nM.
The corresponding values for `CN(C(=O)[C@@H](NC(=O)C(F)(F)F)C1CC1)[C@@H](CC1CC1)C(=O)N1C[C@@]2(C[C@H]1C#N)Oc1cc(F)cc(F)c1NC2=O` [Compound 194] are greater than 1000 nM, less than 100 nM, less than 100 nM, greater than 10000 nM and less than 20 nM.
The like results for `C[C@H](NC(=O)C(F)(F)F)C(=O)N(C)[C@@H](CC1CC1)C(=O)N1C[C@@]2(C[C@H]1C#N)Oc1cc(Cl)cnc1NC2=O` [Compound 147] were, in that order, greater than 1000 nM, less than 100 nM, less than 100 nM, greater than 10000 nM and less than 20 nM.
In series [1], `C[C@H](NC(=O)c1ccc(F)cc1)C(=O)N(C)[C@@H](CC1CC1)C(=O)N1C[C@@]2(C[C@H]1C#N)Oc1cccnc1NC2=O` [Compound 195] gave a CC50 greater than 1000 nM. Besides, the 50% effective concentration (EC50) in series [2] (class symbols) and in series [4] was 100 to 1000 nM in each case. In addition, in series [3], the CC50 at 6 days is greater than 10000 nM. Further, in series [5], the IC50 was less than 20 nM.
As for `CN(C(=O)[C@H](CC1CC1)NC(=O)C(F)(F)F)[C@@H](CC1CC1)C(=O)N1C[C@@]2(C[C@H]1C#N)Oc1c(F)cccc1CNC2=O` [Compound 168], the CC50 in series [1] was greater than 1000 nM. The EC50 in series [2] (class symbols) and in series [4] was less than 100 nM in each case. Moreover, the CC50 at 6 days in series [3] was greater than 10000 nM. The 50% inhibitory concentration (IC50) in series [5] was less than 20 nM.
In series [1], `CN(C(=O)[C@H](CC1(C)CC1)NC(=O)C(F)(F)F)[C@@H](CC1(C)CC1)C(=O)N1C[C@@]2(C[C@H]1C#N)Oc1cccnc1NC2=O` [Compound 215] had a CC50 greater than 1000 nM. Further, the EC50 in series [2] (class symbols) and in series [4] was less than 100 nM each time. The CC50 at 6 days in series [3] is greater than 10000 nM. Besides, the IC50 in series [5] was less than 20 nM.
In turn, `CC(C)C[C@@H](C(=O)N1C[C@@]2(C[C@H]1C#N)Oc1c(F)cc(F)cc1NC2=O)N(C)C(=O)[C@H](C)NC(=O)C(F)(F)F` [Compound 49] yielded a CC50 in series [1] greater than 1000 nM. Also, the EC50 in series [2] (class symbols) and in series [4] was 100 to 1000 nM each time. The compound further displayed a CC50 at 6 days in series [3] greater than 10000 nM. The IC50 in series [5] is less than 20 nM.
